Where a name gives a salt, the structure may show the parent alone.
Test: Solubility screening by solvent addition technique (approximate solubility)
Format: physicochemical
Settings: thermodynamic from solid, stirred at 50° C.
Description: Approximate solubility values for amorphous Compound I dihydrochloride in 24 solvent systems was estimated by a solvent addition technique (Table 5).
The following procedure was used for the study: • Approximately 20 mg of material was weighed out into 24×2 mL push-cap vials. • Each solvent/solvent mixture was added to the appropriate vial in 5 volume aliquots (100 μL) until either no more solvent could be added or until the material dissolved. • In between additions, the experiments were stirred at 50° C. • If 2000 μL of solvent was added without dissolution of the material, solubility was calculated to be below this point. • Experiments were stirred at 50° C. for 1.5-5 h and then cooled at 0.1° C./min to 5° C. and stirred at 5° C. for about 10 h. • Solids (residual and recrystallized) were isolated by centrifugation (0.22 μm nylon filter) and analyzed by XRPD. • Anti-solvent addition (ASA) at 20° C. was carried out on solutions, followed by temperature cycling between 50° C.-5° C. (1 h hold, 0.1° C./min cool, 0.25° C./min ramp) for 20 h. • ASA at 5° C. was carried out on experiments which remained solutions, which were then stirred at 5° C. for 3 h. • Solids were isolated by centrifugation (0.22 μm nylon filter) and analyzed by XRPD; experiments which remained solutions were evaporated at ambient temperature (about 20° C.) under vacuum. • All isolated material was dried under vacuum at about 30° C. for about 19-23 h then re-analyzed by XRPD.
For comparison purposes, the approximate solubility of Compound I dihydrochloride Form 1 was estimated in water, using the same procedure, in solubility screening Experiment 25.

Measured: solubility

CC[C@H]1CN2CCc3cc(OC)c(OC)cc3[C@@H]2C[C@@H]1C[C@H]1NCCc2cc(OC)c(OC)cc21 [Amorphous Compound I dihydrochloride]
> 200 mg/mL: aqueous with cosolvent or surfactant or cyclodextrin, acetone:water 50:50 v/v | aqueous with cosolvent or surfactant or cyclodextrin, ethanol:water 25:75 v/v | aqueous with cosolvent or surfactant or cyclodextrin, methanol:water 50:50 v/v | organic solvent or mixture, 1-propanol | organic solvent or mixture, 2-propanol | organic solvent or mixture, 2-propanol:water 95:5 v/v | organic solvent or mixture, N-methyl-2-pyrrolidone | organic solvent or mixture, dimethylformamide | organic solvent or mixture, dimethylsulfoxide | organic solvent or mixture, ethanol | organic solvent or mixture, ethanol:water 90:10 v/v | organic solvent or mixture, methanol | water
< 10 mg/mL: organic solvent or mixture, 2-methyl THF | organic solvent or mixture, THF | organic solvent or mixture, acetone | organic solvent or mixture, anisole | organic solvent or mixture, ethyl acetate | organic solvent or mixture, heptane | organic solvent or mixture, isopropyl acetate | organic solvent or mixture, methylethyl ketone | organic solvent or mixture, methylisobutyl ketone | organic solvent or mixture, tBME | organic solvent or mixture, toluene
